Data as given in PubChem BioAssay (NCI).
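Briefly, cells in 96-well plates were exposed to five compound concentrations for 48 h, and endpoints were estimated by linear interpolation. TGI: concentration producing complete growth inhibition.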

Columns and labels:
Assay in all cases: NCI-60 cell line screen, 48 h
HS 578T breast = test system: HS 578T breast
K-562 leukemia = test system: K-562 leukemia
M14 melanoma = test system: M14 melanoma
UACC-62 melanoma = test system: UACC-62 melanoma
MDA-MB-435 = test system: MDA-MB-435
HL-60(TB) leukemia = test system: HL-60(TB) leukemia
ACHN renal = test system: ACHN renal
SN12C renal = test system: SN12C renal
SNB-75 CNS = test system: SNB-75 CNS
MCF7 breast = test system: MCF7 breast

| Compound | TGI (HS 578T breast) [µM] | TGI (K-562 leukemia) [µM] | TGI (M14 melanoma) [µM] | TGI (UACC-62 melanoma) [µM] | TGI (MDA-MB-435) [µM] | TGI (HL-60(TB) leukemia) [µM] | TGI (ACHN renal) [µM] | TGI (SN12C renal) [µM] | TGI (SNB-75 CNS) [µM] | TGI (MCF7 breast) [µM] |
| --- | --- | --- | --- | --- | --- | --- | --- | --- | --- | --- |
| O=C(/C=C/c1ccc2c(c1)OCO2)c1ccc(O)cc1 | 34.1 | 27.1 | 32.2 | 33 | 34.1 | 28.7 | 59.4 | 29.1 | 75.7 | 23.1 |
| COc1nncc2[nH]c(-c3ccccc3)cc12 | > 100 | > 100 | > 100 | > 100 | > 100 | > 100 | > 100 | > 100 | > 100 | > 100 |
| Nc1nccc(-c2c[nH]c3cc(Br)ccc23)n1 | 75.7 | > 100 | 43.9 | 47.6 | 80.4 | > 100 | 66 | 49.8 | > 100 | > 100 |
| Cc1cccc(Cn2c3c(c4cc(O)ccc42)C(=O)c2ccccc2C3=O)c1 | > 100 | > 100 | > 100 | > 100 | > 100 | > 89 | > 100 | > 100 | 8.63 | 98.1 |
| COc1ccc(C(=C2C=CC=C2)c2ccc(OC)cc2)cc1 | 94.4 | > 100 | > 100 | 98.1 | > 100 | > 100 | > 100 | 81.3 | > 100 | 37.6 |
| Cc1ccc(N(Cc2ccccc2)Cc2ccccc2)cc1 | > 100 | > 100 | > 100 | > 100 | > 100 | > 100 | > 100 | > 100 | > 100 | > 100 |
| Cc1cc(C)nc(NS(=O)(=O)c2ccc(NC(=O)c3ccc4nc5ccccc5c(Nc5ccc(S(N)(=O)=O)cc5)c4c3)cc2)n1 | > 100 | > 100 | > 100 | > 100 | > 100 | > 100 | > 100 | > 100 | > 100 | > 100 |
| COc1cccc(Nc2nc(-c3cccs3)nc3cc(OC)c(OC)cc23)c1 | 75.3 | > 100 | 82.2 | 39.8 | 96.4 | > 100 | 50.3 | 53.8 | 73.5 | 49.2 |
| CC(=O)Nc1nc(NC(C)=O)c2[nH]c(CO)nc2n1 | > 100 | > 100 | > 100 | > 100 | > 100 | > 100 | > 100 | > 100 | > 100 | > 100 |
| CC(=O)/C=C/C1=C(C)CCCC1(C)CC(C)C (stereo not given) | > 100 | 40.8 | > 100 | 87.3 | > 100 | 30.3 | 47.9 | 38.5 | 93 | 66.9 |
| N=c1nnc2ccc(Cl)cc2n1O | > 100 | > 100 | > 100 | > 100 | > 100 | > 100 | > 100 | > 100 | > 100 | > 100 |
| Nn1c(Nc2ccc(S(=O)(=O)Nc3ncccn3)cc2)nnc(/C=C/c2c(O)ccc3ccccc23)c1=O | > 100 | > 100 | 78.2 | 52.6 | 69.4 | 45.2 | 67.3 | > 100 | 66.5 | 60.3 |
| COC(=O)C1=C(C(=O)OC)SC(=C2SCSC3=C2SC(C(=O)OC)=C(C(=O)OC)C32SC3=C(CCCC3)S2)S1 | > 100 | > 100 | > 100 | > 100 | > 100 | > 100 | > 100 | > 100 | 36.3 | > 100 |
| COc1cc(S(=O)(=O)Nc2nc(-c3ccc(N4C(=O)C(CC(=O)O)SC4c4cccs4)cc3)cs2)ccc1Cl (stereo not given) | > 100 | > 100 | > 100 | 48.9 | > 100 | 74 | > 100 | > 100 | 40.4 | 65.8 |
| CC1(C)O[C@H]2OC(CO[Si](C)(C)C(C)(C)C)C(N=[N+]=[N-])[C@H]2O1 (stereo not given in full) | 51.5 | 29.1 | 43.9 | 52.6 | 66.4 | 23.1 | 38.6 | 36.2 | 59.3 | 36.8 |
| Cc1oc2c(cc(O)c3cc(O)ccc32)c2cccc1-2 | > 100 | > 100 | > 100 | > 100 | > 100 | > 100 | > 100 | > 100 | > 100 | > 100 |

| Compound | TGI (HS 578T breast) [µM] | TGI (K-562 leukemia) [µM] | TGI (M14 melanoma) [µM] | TGI (UACC-62 melanoma) [µM] | TGI (MDA-MB-435) [µM] | TGI (HL-60(TB) leukemia) [µM] | TGI (ACHN renal) [µM] | TGI (SN12C renal) [µM] | TGI (SNB-75 CNS) [µM] | TGI (MCF7 breast) [µM] |
| --- | --- | --- | --- | --- | --- | --- | --- | --- | --- | --- |
| Nc1nc(-c2ccccc2)nc2oc(-c3cccs3)nc12 | > 100 | > 100 | > 100 | > 100 | > 100 | > 100 | > 100 | > 100 | > 100 | > 100 |
| C/C(=C\CBr)CCC(Br)C(C)(C)Br (stereo not given) | > 100 | > 100 | > 100 | > 100 | > 100 | > 100 | > 100 | > 100 | > 100 | > 100 |
| O=C1CCCCC1CN1CCCCC1 (stereo not given) | > 100 | > 100 | > 100 | > 100 | > 100 | > 100 | > 100 | > 100 | > 100 | > 100 |
| COC(=O)c1c(C)nc2c1cc(O)c1[nH]c(C)c(C)nc12 | > 100 | > 100 | > 100 | > 100 | > 100 | > 100 | > 100 | > 100 | 71.8 | > 100 |
| CCC(=O)NC(Nc1cc(C)on1)(C(F)(F)F)C(F)(F)F | > 100 | > 100 | > 100 | > 100 | > 100 | > 100 | > 100 | > 100 | > 100 | > 100 |
| Cc1ccnc(NS(=O)(=O)c2ccc(N=[N+]=[N-])cc2)n1 | > 100 | > 100 | > 100 | > 100 | > 100 | > 86.3 | > 100 | > 100 | > 100 | > 100 |
| N#CC(NCc1cccc(CNC(C#N)c2ccccc2)c1)c1ccccc1 (stereo not given) | > 100 | 31.9 | 62.2 | > 100 | > 100 | 43.4 | > 100 | > 100 | 87.6 | 56.6 |
| CC(=O)N1C(C(=O)NC2CCCCC2)CSC1c1ccccc1 (stereo not given) | > 100 | > 100 | > 100 | > 100 | > 100 | > 100 | > 100 | > 100 | > 100 | > 100 |
| CCOC(=O)c1c(CN2CCCC2)n(-c2ccccc2)c2cc(Br)c(O)cc12 | 74.9 | 41.2 | 29 | 31.1 | 33.2 | 27.5 | 44.9 | 30.2 | 36.7 | 39.5 |
| NC1(c2cc3ccccc3s2)CCCC1 | > 100 | 63 | 56.2 | > 100 | > 100 | > 100 | > 100 | > 100 | > 100 | > 100 |
| CCOC(=O)N1CCN(Cc2cc(=O)n3ccc(C)cc3n2)CC1 | > 100 | > 100 | > 100 | > 100 | > 100 | > 100 | > 100 | > 100 | > 100 | > 100 |
| O=C(/C=C/c1ccccc1)C[C@@H](O)C[C@@H]1CC=CC(=O)O1 | > 87.3 | 7 | 23.5 | 14.5 | 26.6 | 5.06 | 30.5 | 25.2 | > 53.7 | 11.4 |
| CCCCCC1=CC(=O)C1(Cl)Cl | > 81.3 | 19.8 | 45.6 | 32.2 | 33 | 4.06 | 23.4 | 72 | 30.4 | 31.6 |
| COc1ccc(-c2[nH]c3c4c(nc5c(c24)C(=O)CC(C)(C)C5)CC(C)(C)C3)cc1 | > 100 | > 100 | > 100 | > 100 | > 100 | > 100 | > 100 | > 100 | > 100 | > 100 |
| Nc1nc2c(c(-c3cccc(Cl)c3)n1)COC/C2=C\c1cccc(Cl)c1 | > 100 | > 100 | > 100 | > 100 | > 100 | > 100 | > 100 | > 100 | > 100 | > 100 |
| O=C(N/N=C/c1ccc(Cl)cc1)c1c(Cl)c(Cl)c(Cl)c(Cl)c1-c1nc2ccccc2[nH]1 | > 100 | > 100 | > 100 | > 100 | > 100 | > 100 | > 100 | > 100 | > 100 | > 100 |
